According to ChEMBL document CHEMBL3046232, “Synthesis, pharmacological evaluation and molecular docking studies of indanone derivatives” (2012):

How the values were obtained:
Assay type in all cases: functional
Mus musculus [1] = experiment: Analgesic activity in Mus musculus Swiss albino (mouse) assessed as increase in reaction time of paw licking or jump response at 50 mg/kg, po after 30 min by hot plate method
Escherichia coli [2] = experiment: Antimicrobial activity against at Escherichia coli at 25 ug/ml by cup-plate method; conditions: read-out: IZ
Mus musculus [3] = experiment: Analgesic activity in Mus musculus Swiss albino (mouse) assessed as increase in reaction time of paw licking or jump response at 50 mg/kg, po after 60 min by hot plate method
Penicillium chrysogenum [4] = experiment: Antimicrobial activity against at Penicillium chrysogenum at 50 ug/ml by cup-plate method; conditions: read-out: IZ
Rattus norvegicus [5] = experiment: Anti-inflammatory activity in Rattus norvegicus Wistar albino (rat) assessed as protection against carrageenan-induced paw edema at 50 mg/kg after 3 hr
Rattus norvegicus [6] = experiment: Anti-inflammatory activity in Rattus norvegicus Wistar albino (rat) assessed as protection against carrageenan-induced paw edema at 50 mg/kg after 90 min
Rattus norvegicus [7] = experiment: Anti-inflammatory activity in Rattus norvegicus Wistar albino (rat) assessed as protection against carrageenan-induced paw edema at 50 mg/kg after 60 min
Rattus norvegicus [8] = experiment: Anti-inflammatory activity in Rattus norvegicus Wistar albino (rat) assessed as protection against carrageenan-induced paw edema at 50 mg/kg after 30 min
Bacillus subtilis [9] = experiment: Antimicrobial activity against at Bacillus subtilis at 50 ug/ml by cup plate method; conditions: read-out: IZ
Mus musculus [10] = experiment: Analgesic activity in Mus musculus Swiss albino (mouse) assessed as increase in reaction time of paw licking or jump response at 50 mg/kg, po after 90 min by hot plate method
Aspergillus niger [11] = experiment: Antimicrobial activity against at Aspergillus niger at 50 ug/ml by cup-plate method; conditions: read-out: IZ
Escherichia coli [12] = experiment: Antimicrobial activity against at Escherichia coli at 50 ug/ml by cup-plate method; conditions: read-out: IZ
Bacillus subtilis [13] = experiment: Antimicrobial activity against at Bacillus subtilis at 100 ug/ml by cup plate method; conditions: read-out: IZ
Penicillium chrysogenum [14] = experiment: Antimicrobial activity against at Penicillium chrysogenum at 100 ug/ml by cup-plate method; conditions: read-out: IZ
Penicillium chrysogenum [15] = experiment: Antimicrobial activity against at Penicillium chrysogenum at 25 ug/ml by cup-plate method; conditions: read-out: IZ
Aspergillus niger [16] = experiment: Antimicrobial activity against at Aspergillus niger at 25 ug/ml by cup-plate method; conditions: read-out: IZ
Escherichia coli [17] = experiment: Antimicrobial activity against at Escherichia coli at 100 ug/ml by cup-plate method; conditions: read-out: IZ
Rattus norvegicus [18] = experiment: Anti-inflammatory activity in Rattus norvegicus Wistar albino (rat) assessed as protection against carrageenan-induced paw edema at 50 mg/kg after 2 hr
Aspergillus niger [19] = experiment: Antimicrobial activity against at Aspergillus niger at 100 ug/ml by cup-plate method; conditions: read-out: IZ
Bacillus subtilis [20] = experiment: Antimicrobial activity against at Bacillus subtilis at 25 ug/ml by cup plate method; conditions: read-out: IZ

SMILES | Activity (Mus musculus [1]) | zone of inhibition at 25 µg/mL (Escherichia coli [2]) | Activity (Mus musculus [3]) | zone of inhibition at 50 µg/mL (Penicillium chrysogenum [4]) | Activity (Rattus norvegicus [5]) | Activity (Rattus norvegicus [6]) | Activity (Rattus norvegicus [7]) | Activity (Rattus norvegicus [8]) | zone of inhibition at 50 µg/mL (Bacillus subtilis [9]) | Activity (Mus musculus [10]) | zone of inhibition at 50 µg/mL (Aspergillus niger [11]) | zone of inhibition at 50 µg/mL (Escherichia coli [12]) | zone of inhibition at 100 µg/mL (Bacillus subtilis [13]) | zone of inhibition at 100 µg/mL (Penicillium chrysogenum [14]) | zone of inhibition at 25 µg/mL (Penicillium chrysogenum [15]) | zone of inhibition at 25 µg/mL (Aspergillus niger [16]) | zone of inhibition at 100 µg/mL (Escherichia coli [17]) | Activity (Rattus norvegicus [18]) | zone of inhibition at 100 µg/mL (Aspergillus niger [19]) | zone of inhibition at 25 µg/mL (Bacillus subtilis [20])
COc1ccc(-c2onc3c2C(=O)c2ccccc2-3)cc1OC | 12.61% | 7.25 mm | 19.02% | 5.25 mm | 7.32% | 8.12% | 7.21% | 6.21% | 12.8 mm | 23.54% | 13.8 mm | 11 mm | 19.7 mm | 13.8 mm | 4.75 mm | 6.5 mm | 24.5 mm | 6.52% | 17.8 mm | –
O=C1c2ccccc2-c2noc(-c3ccccc3)c21 | 6.23% | 9.79 mm | 12.03% | 12.8 mm | 26.21% | 30.19% | 27.61% | 21.44% | 12 mm | 17.23% | 16.8 mm | 16.9 mm | 16.3 mm | 19.5 mm | 6 mm | 9.75 mm | 30.9 mm | 28.42% | 22.8 mm | 9 mm
O=C1c2ccccc2-c2noc(-c3ccccc3[N+](=O)[O-])c21 | 5.24% | 5.25 mm | 7.62% | 8.25 mm | 9.52% | 7.11% | 6.33% | 7.22% | 7.5 mm | 9.84% | 7.25 mm | 12.8 mm | 14.2 mm | 14.2 mm | 5.25 mm | – | 19.8 mm | 8.01% | 19 mm | 4.25 mm
O=C1c2ccccc2-c2noc(-c3cccc([N+](=O)[O-])c3)c21 | 5.44% | – | 10.38% | 7 mm | 6.44% | 5.52% | 3.99% | 2.02% | 7 mm | 14.2% | 13.2 mm | 13.2 mm | 13.5 mm | 13.5 mm | – | 4.25 mm | 17 mm | 7.44% | 17 mm | 4 mm
O=C1c2ccccc2-c2noc(-c3ccc(Cl)cc3)c21 | 7.18% | 6 mm | 12.8% | 8.5 mm | 16.21% | 12.16% | 12% | 6.31% | 11.5 mm | 16.1% | 9.75 mm | 6.75 mm | 18.5 mm | 12 mm | – | 5.5 mm | 16 mm | 15.11% | 13 mm | 5.25 mm
Cc1ccc(-c2onc3c2C(=O)c2ccccc2-3)cc1 | 15.55% | 10 mm | 23.12% | 6.75 mm | 30.33% | 45.72% | 43.66% | 35.29% | 10.5 mm | 27.01% | 18.5 mm | 15 mm | 15 mm | 15.5 mm | – | 10.5 mm | 25.3 mm | 36.45% | 28 mm | 6.77 mm
O=C1c2ccccc2-c2noc(-c3ccc(O)cc3)c21 | 16.52% | 4.75 mm | 23.74% | 6 mm | 33.45% | 42.6% | 41.46% | 31.16% | 11.2 mm | 27.87% | 13 mm | 5.25 mm | 17.5 mm | 14 mm | 4.35 mm | 6 mm | 13.8 mm | 36.33% | 21 mm | –
CN(C)c1ccc(-c2onc3c2C(=O)c2ccccc2-3)cc1 | 5.02% | – | 5.65% | 7.25 mm | 20.1% | 14.23% | 8.45% | 7.11% | 4.75 mm | 9.93% | 7.5 mm | 12 mm | 12 mm | 12.2 mm | 4 mm | 5.5 mm | 17.2 mm | 19.21% | 13 mm | –
COc1ccc(-c2onc3c2C(=O)c2ccccc2-3)cc1 | 3.06% | 5.5 mm | 5.13% | 12.7 mm | 9.21% | 16.38% | 12.21% | 7.71% | 5.5 mm | 8.04% | 11.7 mm | – | 14.8 mm | 19.6 mm | 5.35 mm | 7.25 mm | 20.2 mm | 12.32% | 17 mm | –
COc1cc(-c2onc3c2C(=O)c2ccccc2-3)cc(OC)c1OC | 4.48% | – | 9.75% | 9.25 mm | 26.32% | 29.14% | 22.38% | 17.21% | 11.5 mm | 12.54% | 11.2 mm | 16.5 mm | 18.8 mm | 19 mm | 5.5 mm | 6.49 mm | 27.8 mm | 29.15% | 19.2 mm | 5.25 mm
COc1cccc(-c2onc3c2C(=O)c2ccccc2-3)c1O | 6% | 10.2 mm | 11.44% | 10.5 mm | 30.41% | 37.62% | 32.22% | 25.44% | – | 16.43% | 16.5 mm | 14.7 mm | 16 mm | 16.6 mm | 5.35 mm | 10.8 mm | 21 mm | 34.32% | 29.6 mm | 6.75 mm
CC1(C)S[C@@H]2[C@H](NC(=O)[C@H](N)c3ccccc3)C(=O)N2[C@H]1C(=O)O [AMPICILLIN] | – | 11.2 mm | – | – | – | – | – | – | 12.1 mm | – | – | 20.4 mm | 21.1 mm | – | – | – | 32.7 mm | – | – | 9.1 mm
OC(Cn1cncn1)(Cn1cncn1)c1ccc(F)cc1F [FLUCONAZOLE] | – | – | – | 14.2 mm | – | – | – | – | – | – | 21.7 mm | – | – | 21.2 mm | 7.32 mm | 11.9 mm | – | – | 31.8 mm | –
COc1ccc2c(c1)c(CC(=O)O)c(C)n2C(=O)c1ccc(Cl)cc1 [INDOMETHACIN] | – | – | – | – | 20.22% | 21.12% | 23.22% | 28.56% | – | – | – | – | – | – | – | – | – | 20.15% | – | –
